What was measured:
GSPT1 = biological target: T1, GSPT1 (Homo sapiens, UniProt P15170+Q96SW2); assay: Western-blot assay of substrate protein degradation in hPBMCs, GSPT1; type: cell-based; conditions: 24 hours of compound treatment
T1 construct: endogenous in cells; host or cells: hPBMCs (Milecell Biotechnologies)

WEE1 = biological target: T2, WEE1 (Homo sapiens, UniProt P30291+Q96SW2); assay: Western-blot assay of substrate protein degradation in hPBMCs, WEE1; type: cell-based; conditions: 24 hours of compound treatment
T2 construct: endogenous in cells; host or cells: hPBMCs (Milecell Biotechnologies)

[1] = biological target: T3, human Cereblon WT GST-tagged protein (Homo sapiens, UniProt Q96SW2); assay: CRBN-binding affinity by HTRF (CEREBLON BINDING kit); conditions: HTRF inhibitory activity, CEREBLON BINDING kit; read-out: HTRF IC50
T3 construct: purchased CISBIO 64BDCRBNPEH

IKZF1 = biological target: T4, IKZF1 (Homo sapiens, UniProt Q13422+Q96SW2); assay: Western-blot assay of substrate protein degradation in hPBMCs, IKZF1; type: cell-based; conditions: 24 hours of compound treatment
T4 construct: endogenous in cells; host or cells: hPBMCs (Milecell Biotechnologies)

MM.1S = assay: Tumor cell proliferation inhibition (CellTiter-Meiluncell Luminescent Cell Viability Assay), MM.1S; conditions: Homo sapiens, MM1.S, read-out: inhibitory activity (IC50, nM) against tumor cells proliferation, MM.1S
Experimental: (§1) The tumor cells used herein were cultured in a cell culture medium listed in table 2 at 37°C in an incubator with 5% CO2. Prior to experimentation, all cell lines used were correctly identified by STR profiling, and tested negative for mycoplasma contamination using a mycoplasma detection kit through routine screenings.
(§2) On the following day, the test compounds of the present disclosure were subjected to serial dilution. […] Subsequently, 0.5 µL of the test compound dilution was transferred into the 96-well plate containing the cells, with each well containing 100 µL of cell culture medium. […] Into the 96-well plate, the diluted test compounds and corresponding detection reagents were added, resulting in final test compound concentrations of 500 nM and 10 nM, respectively.
(§3) After the cells were treated with the compounds of the present disclosure for a specified period (the treatment durations were shown in Table 3), the cell viability assay reagent was added to the culture medium according to the kit's instructions to determine cell viability. […] All controls were treated using the same procedure as the compounds of the present disclosure. The growth inhibition curves for the compounds of the present disclosure were plotted using Prism GraphPad software, and the IC50 values were calculated therefrom.

IKZF2 = biological target: T5, IKZF2 (Homo sapiens, UniProt Q96SW2+Q9UKS7); assay: Western-blot assay of substrate protein degradation in hPBMCs, IKZF2; type: cell-based; conditions: 24 hours of compound treatment
T5 construct: endogenous in cells; host or cells: hPBMCs (Milecell Biotechnologies)

IKZF3 = biological target: T6, IKZF3 (Homo sapiens, UniProt Q96SW2+Q9UKT9); assay: Western-blot assay of substrate protein degradation in hPBMCs, IKZF3; type: cell-based; conditions: 24 hours of compound treatment
T6 construct: endogenous in cells; host or cells: hPBMCs (Milecell Biotechnologies)

CK1α = biological target: T7, CK1α (Homo sapiens, UniProt P48729+Q96SW2); assay: Western-blot assay of substrate protein degradation in hPBMCs, CK1α; type: cell-based; conditions: 24 hours of compound treatment
T7 construct: endogenous in cells; host or cells: hPBMCs (Milecell Biotechnologies)

Jurkat = assay: Tumor cell proliferation inhibition (CellTiter-Meiluncell Luminescent Cell Viability Assay), Jurkat; conditions: Homo sapiens, read-out: inhibitory activity (IC50, nM) against tumor cells proliferation, Jurkat
MV-4-11 = assay: Tumor cell proliferation inhibition (CellTiter-Meiluncell Luminescent Cell Viability Assay), MV-4-11; conditions: Homo sapiens, MV4-11, read-out: inhibitory activity (IC50, nM) against tumor cells proliferation, MV-4-11
Experimental: as §1, §2, §3

[2] = test system: Human acute T lymphocytic leukemia cells (Molt-4); assay: Tumor cell proliferation inhibition (CellTiter-Meiluncell Luminescent Cell Viability Assay), Molt-4; conditions: MOLT-4, read-out: inhibitory activity (IC50, nM) against tumor cells proliferation, Molt-4
CCRF-CEM = assay: Tumor cell proliferation inhibition (CellTiter-Meiluncell Luminescent Cell Viability Assay), CCRF-CEM; conditions: Homo sapiens, read-out: inhibitory activity (IC50, nM) against tumor cells proliferation, CCRF-CEM
[3] = compounds tested at 50 nM and 500 nM (concentration of the table not stated)
[4] = 50 nM and 500 nM tested (concentration behind the class not stated)

T6 sequence (Q9UKT9 whole entry): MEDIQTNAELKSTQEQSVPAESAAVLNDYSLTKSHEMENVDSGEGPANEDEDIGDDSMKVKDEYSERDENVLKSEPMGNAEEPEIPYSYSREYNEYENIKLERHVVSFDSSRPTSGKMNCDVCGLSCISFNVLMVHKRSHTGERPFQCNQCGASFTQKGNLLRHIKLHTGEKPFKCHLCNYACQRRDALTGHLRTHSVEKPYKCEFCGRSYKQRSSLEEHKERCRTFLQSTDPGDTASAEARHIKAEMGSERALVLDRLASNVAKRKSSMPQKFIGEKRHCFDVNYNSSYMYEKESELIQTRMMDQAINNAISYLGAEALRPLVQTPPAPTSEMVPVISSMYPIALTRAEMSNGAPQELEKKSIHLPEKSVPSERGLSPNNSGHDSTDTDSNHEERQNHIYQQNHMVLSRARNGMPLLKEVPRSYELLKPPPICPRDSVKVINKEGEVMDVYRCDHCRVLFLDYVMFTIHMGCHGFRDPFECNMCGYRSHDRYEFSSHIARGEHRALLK
T6 sequence (Q96SW2 whole entry): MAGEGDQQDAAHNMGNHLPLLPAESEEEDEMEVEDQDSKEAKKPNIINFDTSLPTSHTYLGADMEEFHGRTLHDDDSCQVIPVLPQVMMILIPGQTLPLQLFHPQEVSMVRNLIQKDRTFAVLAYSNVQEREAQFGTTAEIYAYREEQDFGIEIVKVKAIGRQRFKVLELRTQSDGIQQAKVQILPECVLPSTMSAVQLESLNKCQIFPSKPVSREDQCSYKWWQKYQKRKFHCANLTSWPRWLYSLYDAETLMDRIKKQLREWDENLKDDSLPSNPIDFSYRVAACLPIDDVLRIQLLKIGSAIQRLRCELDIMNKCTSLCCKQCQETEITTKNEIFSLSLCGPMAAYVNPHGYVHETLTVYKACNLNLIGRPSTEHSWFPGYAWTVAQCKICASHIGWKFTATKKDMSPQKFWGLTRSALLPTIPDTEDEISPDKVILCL
T6 sequence (Q16531 whole entry partner): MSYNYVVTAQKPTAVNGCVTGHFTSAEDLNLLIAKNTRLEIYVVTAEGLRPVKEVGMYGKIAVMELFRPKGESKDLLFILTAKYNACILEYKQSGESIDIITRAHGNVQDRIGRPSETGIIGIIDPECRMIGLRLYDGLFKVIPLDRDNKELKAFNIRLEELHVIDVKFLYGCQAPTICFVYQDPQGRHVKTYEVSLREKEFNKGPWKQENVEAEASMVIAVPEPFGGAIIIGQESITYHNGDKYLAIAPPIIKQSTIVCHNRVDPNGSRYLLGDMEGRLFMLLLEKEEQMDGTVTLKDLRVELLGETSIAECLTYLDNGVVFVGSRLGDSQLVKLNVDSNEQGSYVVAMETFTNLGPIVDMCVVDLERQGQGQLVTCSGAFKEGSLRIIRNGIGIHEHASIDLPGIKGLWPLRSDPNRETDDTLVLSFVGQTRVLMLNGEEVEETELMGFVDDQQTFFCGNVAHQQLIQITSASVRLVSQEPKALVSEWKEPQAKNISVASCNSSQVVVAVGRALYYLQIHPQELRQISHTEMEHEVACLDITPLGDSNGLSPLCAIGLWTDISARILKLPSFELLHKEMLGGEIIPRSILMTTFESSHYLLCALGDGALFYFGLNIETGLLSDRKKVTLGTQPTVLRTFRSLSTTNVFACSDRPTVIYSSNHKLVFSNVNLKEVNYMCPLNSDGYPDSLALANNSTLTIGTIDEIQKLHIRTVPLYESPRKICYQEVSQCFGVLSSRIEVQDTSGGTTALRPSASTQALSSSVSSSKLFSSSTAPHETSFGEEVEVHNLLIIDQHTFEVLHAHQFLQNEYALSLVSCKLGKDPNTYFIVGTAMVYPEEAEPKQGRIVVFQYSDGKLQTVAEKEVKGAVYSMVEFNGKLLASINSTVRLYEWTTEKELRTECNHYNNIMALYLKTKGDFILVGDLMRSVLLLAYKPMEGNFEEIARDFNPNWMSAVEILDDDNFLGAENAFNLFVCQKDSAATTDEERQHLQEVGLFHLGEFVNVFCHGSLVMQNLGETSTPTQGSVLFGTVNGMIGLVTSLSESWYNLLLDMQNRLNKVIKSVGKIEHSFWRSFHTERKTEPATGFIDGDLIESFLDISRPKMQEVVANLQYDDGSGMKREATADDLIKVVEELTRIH
T2 sequence (P30291 whole entry): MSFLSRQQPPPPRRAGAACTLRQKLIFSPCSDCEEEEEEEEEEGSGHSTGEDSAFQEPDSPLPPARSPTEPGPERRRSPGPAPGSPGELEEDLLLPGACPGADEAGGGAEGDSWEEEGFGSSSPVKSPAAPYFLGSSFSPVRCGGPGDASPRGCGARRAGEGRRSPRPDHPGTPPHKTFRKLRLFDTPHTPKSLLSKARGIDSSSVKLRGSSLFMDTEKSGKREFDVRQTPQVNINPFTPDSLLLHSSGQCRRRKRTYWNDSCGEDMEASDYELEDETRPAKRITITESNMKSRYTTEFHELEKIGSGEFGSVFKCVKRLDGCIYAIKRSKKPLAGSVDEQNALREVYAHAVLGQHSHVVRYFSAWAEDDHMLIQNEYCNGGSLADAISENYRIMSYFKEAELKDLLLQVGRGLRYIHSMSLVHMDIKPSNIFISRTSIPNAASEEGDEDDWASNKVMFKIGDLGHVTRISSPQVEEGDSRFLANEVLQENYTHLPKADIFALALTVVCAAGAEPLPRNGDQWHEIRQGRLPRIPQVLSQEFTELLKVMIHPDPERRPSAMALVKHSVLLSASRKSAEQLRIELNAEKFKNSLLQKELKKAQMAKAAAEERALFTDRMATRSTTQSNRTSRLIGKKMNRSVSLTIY
T2 sequence (Q96SW2 whole entry): as the sequence (Q96SW2 whole entry) above
T2 sequence (Q16531 whole entry partner): as the sequence (Q16531 whole entry partner) above
T1 sequence (P15170 whole entry): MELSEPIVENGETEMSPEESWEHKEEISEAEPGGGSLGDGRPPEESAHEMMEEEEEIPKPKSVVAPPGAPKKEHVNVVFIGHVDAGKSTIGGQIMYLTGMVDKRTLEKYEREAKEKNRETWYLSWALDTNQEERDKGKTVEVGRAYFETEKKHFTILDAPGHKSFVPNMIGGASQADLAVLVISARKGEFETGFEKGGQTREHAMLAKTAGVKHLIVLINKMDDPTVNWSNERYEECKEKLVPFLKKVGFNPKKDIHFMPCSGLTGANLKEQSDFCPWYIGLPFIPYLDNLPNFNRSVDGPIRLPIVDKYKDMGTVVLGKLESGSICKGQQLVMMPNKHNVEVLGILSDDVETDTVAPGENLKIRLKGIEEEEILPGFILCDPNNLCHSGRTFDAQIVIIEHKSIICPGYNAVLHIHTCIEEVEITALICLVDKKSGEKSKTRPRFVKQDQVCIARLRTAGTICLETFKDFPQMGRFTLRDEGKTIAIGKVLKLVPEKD
T1 sequence (Q96SW2 whole entry): as the sequence (Q96SW2 whole entry) above
T1 sequence (Q16531 whole entry partner): as the sequence (Q16531 whole entry partner) above
T3 sequence (Q96SW2 whole entry): as the sequence (Q96SW2 whole entry) above
T4 sequence (Q13422 whole entry): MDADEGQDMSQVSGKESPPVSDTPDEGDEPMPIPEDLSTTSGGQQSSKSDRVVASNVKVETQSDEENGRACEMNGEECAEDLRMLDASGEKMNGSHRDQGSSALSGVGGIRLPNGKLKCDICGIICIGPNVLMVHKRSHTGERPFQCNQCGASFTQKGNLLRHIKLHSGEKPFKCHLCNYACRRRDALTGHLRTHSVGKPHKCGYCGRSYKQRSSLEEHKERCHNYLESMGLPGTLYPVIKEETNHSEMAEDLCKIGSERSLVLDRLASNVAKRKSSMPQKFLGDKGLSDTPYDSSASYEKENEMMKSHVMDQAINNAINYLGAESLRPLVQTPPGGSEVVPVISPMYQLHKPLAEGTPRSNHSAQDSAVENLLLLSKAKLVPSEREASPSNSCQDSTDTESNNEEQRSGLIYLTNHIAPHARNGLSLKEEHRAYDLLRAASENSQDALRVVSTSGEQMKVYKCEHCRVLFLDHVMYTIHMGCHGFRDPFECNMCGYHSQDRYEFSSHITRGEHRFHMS
T4 sequence (Q96SW2 whole entry): as the sequence (Q96SW2 whole entry) above
T4 sequence (Q16531 whole entry partner): as the sequence (Q16531 whole entry partner) above
T7 sequence (P48729 whole entry): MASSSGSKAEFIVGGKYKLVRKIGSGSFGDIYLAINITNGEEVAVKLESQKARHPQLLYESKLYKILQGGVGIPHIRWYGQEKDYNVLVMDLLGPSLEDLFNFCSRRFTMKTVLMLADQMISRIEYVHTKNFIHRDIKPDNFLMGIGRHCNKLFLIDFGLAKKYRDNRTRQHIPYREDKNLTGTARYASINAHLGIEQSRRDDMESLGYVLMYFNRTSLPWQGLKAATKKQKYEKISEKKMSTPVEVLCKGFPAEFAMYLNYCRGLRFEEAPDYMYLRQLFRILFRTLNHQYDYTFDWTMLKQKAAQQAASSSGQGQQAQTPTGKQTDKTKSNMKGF
T7 sequence (Q96SW2 whole entry): as the sequence (Q96SW2 whole entry) above
T7 sequence (Q16531 whole entry partner): as the sequence (Q16531 whole entry partner) above

Row | SMILES | GSPT1 substrate protein remaining % (GSPT1; [3]) | Weel substrate protein remaining % (WEE1; [3]) | IC50 [1] [nM] | IKZF 1 substrate protein remaining % (IKZF1; [3]) | IC50 (MM.1S) [nM] | IKZF2 substrate protein remaining % (IKZF2; [3]) | IKZF3 substrate protein remaining % (IKZF3; [3]) | CK1a substrate protein remaining % (CK1α; [3]) | IC50 (Jurkat) [nM] | GSPT1 substrate protein remaining % (GSPT1; [4]) | Weel substrate protein remaining % (WEE1; [4]) | IC50 (MV-4-11) [nM] | IKZF 1 substrate protein remaining % (IKZF1; [4]) | IC50 [2] [nM] | IKZF2 substrate protein remaining % (IKZF2; [4]) | IKZF3 substrate protein remaining % (IKZF3; [4]) | CK1a substrate protein remaining % (CK1α; [4]) | IC50 (CCRF-CEM) [nM]
1 | O=C1CCC(N2Cc3cc(CN4CCCN(c5cccc(Cl)c5Cl)CC4)ccc3C2=O)C(=O)N1 (stereo not shown) [GT-04856, 3-(5-((4-(2,3-dichlorophenyl)-1,4-diazepan-1-yl)methyl)-1-oxoisoindolin-2-yl)piperidine-2,6-dione] | A (0% ≤ substrate protein remaining % ≤ 80%) | A (0% ≤ substrate protein remaining % ≤ 80%) | 500 to 1000 | A (0% ≤ substrate protein remaining % ≤ 80%) | 10 to 50 | A (0% ≤ substrate protein remaining % ≤ 80%) | A (0% ≤ substrate protein remaining % ≤ 80%) | B (80%< substrate protein remaining %≤ 100%) | – | – | – | – | – | – | – | – | – | –
2 | Cc1nc(C2=CCN(Cc3ccc4c(c3)CN(C3CCC(=O)NC3=O)C4=O)CC2)c2c3c(sc2n1)CCC3 (stereo not shown) [GT-05211, 3-(5-((4-(2-methyl-6,7-dihydro-5H-cyclopenta[4,5]thieno[2,3-d]pyrimidin-4-yl)-3,6-dihydropyridin-1(2H)-yl)methyl)-1-oxoisoindolin-2-yl)piperidine-2,6-dione] | A (0% ≤ substrate protein remaining % ≤ 80%) | A (0% ≤ substrate protein remaining % ≤ 80%) | < 500 | A (0% ≤ substrate protein remaining % ≤ 80%) | 50 to 100 | A (0% ≤ substrate protein remaining % ≤ 80%) | A (0% ≤ substrate protein remaining % ≤ 80%) | A (0% ≤ substrate protein remaining % ≤ 80%) | – | – | – | – | – | – | – | – | – | –
3 | O=C1CCC(N2Cc3cc(CN4CCC(N5CCOc6cc(F)ccc65)CC4)ccc3C2=O)C(=O)N1 (stereo not shown) [GT-04859, 3-(5-((4-(7-fluoro-2,3-dihydro-4H-benzo[b][1,4]oxazin-4-yl)piperidin-1-yl)methyl)-1-oxoisoindolin-2-yl)piperidine-2,6-dione] | A (0% ≤ substrate protein remaining % ≤ 80%) | B (80%< substrate protein remaining %≤ 100%) | < 500 | A (0% ≤ substrate protein remaining % ≤ 80%) | 50 to 100 | A (0% ≤ substrate protein remaining % ≤ 80%) | A (0% ≤ substrate protein remaining % ≤ 80%) | B (80%< substrate protein remaining %≤ 100%) | – | – | – | – | – | – | – | – | – | –
4 | O=C1CCC(N2Cc3cc(CN4CCN(c5nc(N6CCOCC6)nc6ccsc56)CC4)ccc3C2=O)C(=O)N1 (stereo not shown) [GT-04903, 3-(5-((4-(2-morpholinothieno[3,2-d]pyrimidin-4-yl)piperazin-1-yl)methyl)-1-oxoisoindolin-2-yl)piperidine-2,6-dione] | A (0% ≤ substrate protein remaining % ≤ 80%) | B (80%< substrate protein remaining %≤ 100%) | < 500 | B (80%< substrate protein remaining %≤ 100%) | 10 to 50 | A (0% ≤ substrate protein remaining % ≤ 80%) | A (0% ≤ substrate protein remaining % ≤ 80%) | A (0% ≤ substrate protein remaining % ≤ 80%) | – | – | – | – | – | – | – | – | – | –
5 | O=C1CCC(N2C(=O)c3ccc(CN4CC=C(c5cncc(Cl)c5Cl)CC4)cc3C2=O)C(=O)N1 (stereo not shown) [GT-06609, 5-((4,5-dichloro-3',6'-dihydro-[3,4'-bipyridin]-1'(2'H)-yl)methyl)-2-(2,6-dioxopiperidin-3-yl)isoindoline-1,3-dione] | – | – | 500 to 1000 | – | – | – | – | – | 100 to 500 | A (0% ≤ substrate protein remaining % ≤ 80%) | A (0% ≤ substrate protein remaining % ≤ 80%) | 100 to 500 | A (0% ≤ substrate protein remaining % ≤ 80%) | 100 to 500 | A (0% ≤ substrate protein remaining % ≤ 80%) | A (0% ≤ substrate protein remaining % ≤ 80%) | B (80%< substrate protein remaining %≤ 100%) | 100 to 500
6 | O=C1CCC(N2Cc3cc(CN4CCC(C5CCOc6cc(F)ccc65)CC4)ccc3C2=O)C(=O)N1 (stereo not shown) [GT-04901, 3-(5-((4-(7-fluorochroman-4-yl)piperidin-1-yl)methyl)-1-oxoisoindolin-2-yl)piperidine-2,6-dione] | B (80%< substrate protein remaining %≤ 100%) | B (80%< substrate protein remaining %≤ 100%) | < 500 | A (0% ≤ substrate protein remaining % ≤ 80%) | 10 to 50 | A (0% ≤ substrate protein remaining % ≤ 80%) | A (0% ≤ substrate protein remaining % ≤ 80%) | B (80%< substrate protein remaining %≤ 100%) | – | – | – | – | – | – | – | – | – | –
7 | O=C1CCC(N2C(=O)c3ccc(CN4CC=C(c5ccnc(Cl)c5Cl)CC4)cc3C2=O)C(=O)N1 (stereo not shown) [GT-06616, 5-((2',3'-dichloro-3,6-dihydro-[4,4'-bipyridin]-1(2H)-yl)methyl)-2-(2,6-dioxopiperidin-3-yl)isoindoline-1,3-dione] | – | – | 1500 to 1900 | – | – | – | – | – | – | A (0% ≤ substrate protein remaining % ≤ 80%) | A (0% ≤ substrate protein remaining % ≤ 80%) | 100 to 500 | A (0% ≤ substrate protein remaining % ≤ 80%) | 500 to 1000 | B (80%< substrate protein remaining %≤ 100%) | A (0% ≤ substrate protein remaining % ≤ 80%) | A (0% ≤ substrate protein remaining % ≤ 80%) | 500 to 1000
8 | O=C1CCC(N2C(=O)c3ccc(CN4CC=C(c5ncc6ccsc6n5)CC4)cc3C2=O)C(=O)N1 (stereo not shown) [GT-06683, 2-(2,6-dioxopiperidin-3-yl)-5-((4-(thieno[2,3-d]pyrimidin-2-yl)-3,6-dihydropyridin-1(2H)-yl)methyl)isoindoline-1,3-dione] | – | – | – | – | – | – | – | – | – | A (0% ≤ substrate protein remaining % ≤ 80%) | A (0% ≤ substrate protein remaining % ≤ 80%) | 100 to 500 | A (0% ≤ substrate protein remaining % ≤ 80%) | 500 to 1000 | A (0% ≤ substrate protein remaining % ≤ 80%) | A (0% ≤ substrate protein remaining % ≤ 80%) | B (80%< substrate protein remaining %≤ 100%) | 500 to 1000
9 | Cc1nc(C2=CCN(Cc3ccc4c(c3)C(=O)N(C3CCC(=O)NC3=O)C4=O)CC2)c2ccsc2n1 (stereo not shown) [GT-06678, 2-(2,6-dioxopiperidin-3-yl)-5-((4-(2-methylthieno[2,3-d]pyrimidin-4-yl)-3,6-dihydropyridin-1(2H)-yl)methyl)isoindoline-1,3-dione] | – | – | – | – | – | – | – | – | – | A (0% ≤ substrate protein remaining % ≤ 80%) | A (0% ≤ substrate protein remaining % ≤ 80%) | 100 to 500 | A (0% ≤ substrate protein remaining % ≤ 80%) | 100 to 500 | B (80%< substrate protein remaining %≤ 100%) | A (0% ≤ substrate protein remaining % ≤ 80%) | A (0% ≤ substrate protein remaining % ≤ 80%) | 100 to 500

Source: EP4745137A1 (Gluetacs Therapeutics (Shanghai) Co., Ltd., priority 2023, dated 2025)
